Measurements taken from the OligoGym collection.
Oligonucleotides are written 5' to 3', each unit as a sugar letter and its base; * is a phosphorothioate linkage, no mark a phosphodiester; rarer units and linkages stand in square brackets, end groups in braces. Plain capitals give the bases only. d = 2'-deoxy (DNA); r = 2'-OH (RNA)

molecular target: DENND5A; experiment: reporter assay of Huesken 2005; conditions: siRNA
Note: test concentration or dose not given here.

Point of comparison: “sense rCrUrGrArGrGrArUrCrUrCrCrCrUrGrArUrUrCdTdT / antisense rGrArArUrCrArGrGrGrArGrArUrCrCrUrCrArGdGdG”, normalised inhibition (eCFP-eYFP dual reporter) 60.6%. Against it:
- sense rCrArGrGrArUrArUrGrArGrGrCrArCrArUrCrCdTdT / antisense rGrGrArUrGrUrGrCrCrUrCrArUrArUrCrCrUrGdAdA — lower, 46.7%
- sense rCrArGrGrGrArGrCrArArArUrGrCrArArArArCdTdT / antisense rGrUrUrUrUrGrCrArUrUrUrGrCrUrCrCrCrUrGdTdT — higher, 67.9%
- sense rCrArGrUrUrCrCrCrCrArArCrArArArUrUrGrGdTdT / antisense rCrCrArArUrUrUrGrUrUrGrGrGrGrArArCrUrGdTdG — higher, 67.9%
- sense rCrArUrGrUrCrGrGrArGrCrGrUrGrCrUrGrGrAdTdT / antisense rUrCrCrArGrCrArCrGrCrUrCrCrGrArCrArUrGdCdC — higher, 60.8%
- sense rCrArUrUrCrArGrArUrCrCrGrGrGrArArGrUrUdTdT / antisense rArArCrUrUrCrCrCrGrGrArUrCrUrGrArArUrGdTdT — higher, 74.7%
- sense rCrCrArGrArGrGrGrArGrArArGrUrArCrArUrCdTdT / antisense rGrArUrGrUrArCrUrUrCrUrCrCrCrUrCrUrGrGdTdC — lower, 34.5%
- sense rCrCrArGrCrCrUrUrUrGrUrGrArUrCrUrCrCrUdTdT / antisense rArGrGrArGrArUrCrArCrArArArGrGrCrUrGrGdCdA — lower, 47.1%
- sense rCrCrArGrCrUrCrArCrUrCrArUrGrCrCrUrCrCdTdT / antisense rGrGrArGrGrCrArUrGrArGrUrGrArGrCrUrGrGdCdA — higher, 64.4%
- sense rCrCrArUrGrCrCrUrUrUrArUrUrArUrCrArCrAdTdT / antisense rUrGrUrGrArUrArArUrArArArGrGrCrArUrGrGdAdA — higher, 72.5%
- sense rCrCrCrCrGrCrCrGrCrUrGrCrArGrCrArGrUrCdTdT / antisense rGrArCrUrGrCrUrGrCrArGrCrGrGrCrGrGrGrGdTdC — higher, 61.8%
- sense rCrCrUrCrUrArCrCrArCrArUrGrCrArCrArArUdTdT / antisense rArUrUrGrUrGrCrArUrGrUrGrGrUrArGrArGrGdGdT — higher, 68.3%
- sense rCrCrUrUrArUrGrGrUrCrCrCrArCrCrUrGrUrUdTdT / antisense rArArCrArGrGrUrGrGrGrArCrCrArUrArArGrGdCdT — higher, 62.5%
- sense rCrUrArUrCrArCrCrUrCrCrUrGrUrCrUrUrUrCdTdT / antisense rGrArArArGrArCrArGrGrArGrGrUrGrArUrArGdAdG — higher, 63.1%
- sense rCrUrCrArArGrArGrGrCrUrArArCrCrUrCrUrGdTdT / antisense rCrArGrArGrGrUrUrArGrCrCrUrCrUrUrGrArGdGdC — lower, 52.3%
- sense rCrUrCrArArGrArUrUrCrCrUrGrGrArGrArCrCdTdT / antisense rGrGrUrCrUrCrCrArGrGrArArUrCrUrUrGrArGdAdG — higher, 64.6%
- sense rCrUrCrCrUrGrUrGrArCrCrArArArCrUrGrCrAdTdT / antisense rUrGrCrArGrUrUrUrGrGrUrCrArCrArGrGrArGdTdG — higher, 80.5%
- sense rCrUrCrUrArCrGrUrCrUrCrUrArArGrUrGrCrAdTdT / antisense rUrGrCrArCrUrUrArGrArGrArCrGrUrArGrArGdAdG — higher, 68.3%
- sense rCrUrGrArUrCrGrUrArCrCrArArGrCrArArGrAdTdT / antisense rUrCrUrUrGrCrUrUrGrGrUrArCrGrArUrCrArGdAdA — lower, 54.7%
- sense rCrUrGrGrArUrUrGrCrCrCrUrGrCrUrGrGrCrUdTdT / antisense rArGrCrCrArGrCrArGrGrGrCrArArUrCrCrArGdTdG — higher, 63.7%
- sense rCrUrGrUrCrGrGrCrArUrUrArUrGrCrCrArGrUdTdT / antisense rArCrUrGrGrCrArUrArArUrGrCrCrGrArCrArGdCdT — higher, 73%
- sense rCrUrGrUrCrUrUrUrCrArArUrGrCrCrGrUrCrGdTdT / antisense rCrGrArCrGrGrCrArUrUrGrArArArGrArCrArGdGdA — lower, 47.4%
- sense rCrUrUrCrUrArArArGrCrCrArGrGrGrArUrGrGdTdT / antisense rCrCrArUrCrCrCrUrGrGrCrUrUrUrArGrArArGdCdC — lower, 46.4%
- sense rCrUrUrGrArGrArGrCrUrArCrArUrArUrArCrAdTdT / antisense rUrGrUrArUrArUrGrUrArGrCrUrCrUrCrArArGdGdG — higher, 74.2%
- sense rCrUrUrGrCrCrArCrArGrUrUrCrCrCrCrArArCdTdT / antisense rGrUrUrGrGrGrGrArArCrUrGrUrGrGrCrArArGdTdC — lower, 50.6%
- sense rCrUrUrUrCrArArUrGrCrCrGrUrCrGrArUrUrAdTdT / antisense rUrArArUrCrGrArCrGrGrCrArUrUrGrArArArGdAdC — higher, 76.8%
- sense rCrUrUrUrGrUrGrArUrCrUrCrCrUrGrGrArArAdTdT / antisense rUrUrUrCrCrArGrGrArGrArUrCrArCrArArArGdGdC — higher, 65.8%
- sense rGrArArUrGrGrGrArArCrArUrUrGrCrUrGrGrCdTdT / antisense rGrCrCrArGrCrArArUrGrUrUrCrCrCrArUrUrCdCdT — lower, 45.3%
- sense rGrArCrCrCrArGrArUrGrUrUrUrGrCrArUrCrUdTdT / antisense rArGrArUrGrCrArArArCrArUrCrUrGrGrGrUrCdTdC — higher, 71.9%
- sense rGrArCrUrGrArArGrGrArGrArArArArUrUrUrUdTdT / antisense rArArArArUrUrUrUrCrUrCrCrUrUrCrArGrUrCdGdT — higher, 90.8%
- sense rGrArGrCrUrGrCrUrCrArCrArUrCrCrCrArGrCdTdT / antisense rGrCrUrGrGrGrArUrGrUrGrArGrCrArGrCrUrCdCdC — lower, 42.6%
- sense rGrArGrGrArUrGrGrCrUrCrUrCrGrGrArCrArUdTdT / antisense rArUrGrUrCrCrGrArGrArGrCrCrArUrCrCrUrCdCdC — lower, 55.9%
- sense rGrArGrGrUrGrGrArUrGrArGrArGrGrCrCrArUdTdT / antisense rArUrGrGrCrCrUrCrUrCrArUrCrCrArCrCrUrCdAdG — higher, 74.4%
- sense rGrArUrCrCrUrArGrUrUrGrGrGrGrArGrCrUrGdTdT / antisense rCrArGrCrUrCrCrCrCrArArCrUrArGrGrArUrCdCdG — higher, 66.6%
- sense rGrArUrGrArGrArGrGrCrCrArUrGrCrCrGrGrAdTdT / antisense rUrCrCrGrGrCrArUrGrGrCrCrUrCrUrCrArUrCdCdA — higher, 63%
- sense rGrArUrGrGrUrGrArArGrArCrArCrUrCrCrUrGdTdT / antisense rCrArGrGrArGrUrGrUrCrUrUrCrArCrCrArUrCdCdT — higher, 82.9%
- sense rGrCrArArUrArArGrGrArUrCrUrCrArArArGrUdTdT / antisense rArCrUrUrUrGrArGrArUrCrCrUrUrArUrUrGrCdTdG — higher, 66.2%
- sense rGrCrArCrUrUrCrCrArUrArArGrCrCrUrGrArGdTdT / antisense rCrUrCrArGrGrCrUrUrArUrGrGrArArGrUrGrCdTdT — higher, 78.7%
- sense rGrCrCrCrGrGrArArCrUrUrCrUrGrCrCrGrArUdTdT / antisense rArUrCrGrGrCrArGrArArGrUrUrCrCrGrGrGrCdTdC — higher, 70.9%
- sense rGrCrUrGrArArGrArGrGrCrUrGrCrGrGrGrCrCdTdT / antisense rGrGrCrCrCrGrCrArGrCrCrUrCrUrUrCrArGrCdTdT — lower, 37.4%
- sense rGrGrArArArArGrUrUrGrGrArArGrUrGrCrGrUdTdT / antisense rArCrGrCrArCrUrUrCrCrArArCrUrUrUrUrCrCdAdG — higher, 60.8%
- sense rGrGrArCrUrGrGrArCrArCrGrGrArGrArCrCrGdTdT / antisense rCrGrGrUrCrUrCrCrGrUrGrUrCrCrArGrUrCrCdGdC — lower, 60.4%
- sense rGrGrArGrCrArArCrUrCrCrArCrCrArGrGrCrAdTdT / antisense rUrGrCrCrUrGrGrUrGrGrArGrUrUrGrCrUrCrCdAdG — higher, 62.1%
- sense rGrGrCrCrArGrCrCrArGrCrArArCrArArGrUrGdTdT / antisense rCrArCrUrUrGrUrUrGrCrUrGrGrCrUrGrGrCrCdCdA — higher, 73.7%
- sense rGrGrCrUrArArCrCrUrCrUrGrCrUrUrUrGrUrGdTdT / antisense rCrArCrArArArGrCrArGrArGrGrUrUrArGrCrCdTdC — higher, 70.2%
- sense rGrGrCrUrGrGrCrArUrUrCrArArGrArCrCrCrAdTdT / antisense rUrGrGrGrUrCrUrUrGrArArUrGrCrCrArGrCrCdCdT — higher, 75.8%
- sense rGrGrGrArArArUrCrArGrCrCrUrUrArUrGrGrUdTdT / antisense rArCrCrArUrArArGrGrCrUrGrArUrUrUrCrCrCdCdT — higher, 61.1%
- sense rGrGrGrArGrCrCrArGrArGrArUrCrArCrCrUrCdTdT / antisense rGrArGrGrUrGrArUrCrUrCrUrGrGrCrUrCrCrCdAdA — lower, 49.7%
- sense rGrGrGrCrArUrGrGrArUrGrArUrGrGrArArGrCdTdT / antisense rGrCrUrUrCrCrArUrCrArUrCrCrArUrGrCrCrCdTdT — lower, 54.4%
- sense rGrGrUrGrCrCrGrCrUrCrCrCrArCrCrUrCrCrUdTdT / antisense rArGrGrArGrGrUrGrGrGrArGrCrGrGrCrArCrCdTdC — lower, 39%
- sense rGrUrGrCrCrArGrArArCrUrUrGrGrGrGrArArGdTdT / antisense rCrUrUrCrCrCrCrArArGrUrUrCrUrGrGrCrArCdTdC — lower, 41.9%
- sense rGrUrUrUrArGrArUrArArUrGrArCrCrArGrArGdTdT / antisense rCrUrCrUrGrGrUrCrArUrUrArUrCrUrArArArCdGdC — lower, 51.4%
